The values that follow come from ChEMBL document CHEMBL2440034, “Towards new C6-rigid S-DABO HIV-1 reverse transcriptase inhibitors: synthesis, biological investigation and molecular modeling studies” (Bioorg Med Chem, 2013).

Broadly, the CC50 is the concentration giving 50% cytotoxicity. By EC50 is commonly meant the midpoint of the concentration-response curve. One may read the IC50 as the concentration that gives 50% inhibition.

Data set [1] is described as follows: Selectivity index, ratio of CC50 for human MT4 cells to EC50 for wild type HIV-1 3B infected in human MT4 cells. Format: toxicity, cell-based. The settings on record: read-out: Ratio CC50/EC50.
Data set [2] can be described thus: Cytotoxicity against human MT4 cells assessed as cell viability after 5 days by MTT assay. Format: cell-based. (In general: Tetrazolium assays rely on reduction of a dye to a coloured formazan, in cell work by metabolically active cells.)
Data set [3] has as its system Human immunodeficiency virus 2. The data set can be described thus: Antiviral activity against HIV-2 ROD infected in human MT4 cells assessed as protection against virus-induced cytopathogenicity after 5 days by MTT assay. The data set is classed as functional, organism-based. The following applies: Human immunodeficiency virus 2, ISOLATE ROD, MT4, 120 h.
In data set [4] the test system is Human immunodeficiency virus 1. Description: Antiviral activity against HIV-1 RESO56 harboring RT K103N/Y181C double mutant infected in human MT4 cells assessed as protection against virus-induced cytopathogenicity after 5 days by MTT assay. The data set is classed as functional, organism-based. The settings on record: Human immunodeficiency virus 1, RESO56, MT4, 120 h. For orientation: Damage to the host cells serves as the signal in cytopathic effect assays.

The subject of data set [5] is Human immunodeficiency virus 1. The data set can be described thus: Antiviral activity against wild type HIV-1 3B infected in human MT4 cells assessed as protection against virus-induced cytopathogenicity after 5 days by MTT assay. The data set is classed as functional, organism-based. The following applies: Human immunodeficiency virus 1, 3B, MT4, 120 h.
For data set [6], the system named is Human immunodeficiency virus 1. Description: Potency index, ratio of DDI EC50 to compound EC50 for wild type HIV-1 3B infected in human MT4 cells. The data set is classed as functional.
The target of data set [7] is Human immunodeficiency virus type 1 reverse transcriptase (Human immunodeficiency virus 1, UniProt Q72547). Description: Inhibition of recombinant wild type HIV-1 reverse transcriptase p66/p51 expressed in Escherichia coli JM109 using poly(rA)/oligo(dT)16 (1:1.2) as template/primer after 40 mins by spectrofluorometric analysis.

As for `COc1ccc(CSc2nc(C(=O)c3cccc(Cl)c3)c(C)c(=O)[nH]2)cc1`, the selectivity ratio in data set [1] was 21. Besides, the CC50 at 120 h in data set [2] turned out to be 152 µM. For the same molecule, the EC50 in data set [3] is > 152 µM; in data set [4], > 152 µM; in data set [5], 7.21 µM.

With `COc1ccc(CSc2nc(C(=O)c3ccc(C(C)(C)C)cc3)c(C)c(=O)[nH]2)cc1`, the selectivity ratio in data set [1] was ≤ 1. In data set [2], the CC50 at 120 h was 126 µM. In addition, the EC50 is > 126 µM in data set [3] and ≥ 126 µM in data set [5].

As for `COc1ccc(CSc2nc(C(=O)c3ccc(F)cc3)c(C)c(=O)[nH]2)cc1`, the CC50 at 120 h in data set [2] was ≥ 325 µM. Moreover, the EC50 in data set [3] is > 325 µM; in data set [5] it was ≥ 325 µM.

As to `CCc1c(C(=O)c2cccc(F)c2)nc(SCc2ccc(OC)cc2)[nH]c1=O`, the “Ratio EC50” value in data set [6] was determined as 50. Also, in data set [7], the IC50 was 0.19 µM. In data set [1], the selectivity ratio stood at 436. In addition, the CC50 at 120 h in data set [2] was 167 µM. Also, the EC50 in data set [3] was > 167 µM; in data set [4] it was > 167 µM; in data set [5], 0.38 µM.

Turning to `COc1ccc(CSc2nc(C(=O)c3ccc(Br)cc3)c(C)c(=O)[nH]2)cc1`, the selectivity ratio in data set [1] was ≤ 1. In data set [2], the CC50 at 120 h turned out to be 252 µM. The EC50 in data set [3] was > 252 µM; in data set [5], ≥ 252 µM.

For `COc1ccc(CSc2nc(C(=O)c3ccc(Cl)cc3)c(C)c(=O)[nH]2)cc1`, the CC50 at 120 h in data set [2] is ≥ 151 µM. Further, the EC50 is > 151 µM in data set [3] and ≥ 151 µM in data set [5].

As for `COc1ccc(CSc2nc(C(=O)c3ccc(F)cc3)c(C(C)C)c(=O)[nH]2)cc1`, in data set [1], the selectivity ratio is 21. Further, in data set [2], the CC50 at 120 h was found to be 135 µM. Further, the EC50 in data set [3] is > 135 µM; in data set [4], > 135 µM; in data set [5] it was 6.52 µM.

Take `Cc1ccnc2c1NC(=O)c1cccnc1N2C1CC1` [NEVIRAPINE]: the half-maximal cytotoxic concentration (CC50) at 120 h in data set [2] turned out to be 15 µM. The EC50 in data set [4] was determined as 1.97 µM; in data set [5], 0.084 µM.

As to `Nc1ccn([C@H]2CC[C@@H](CO)O2)c(=O)n1` [ZALCITABINE], in data set [1], the selectivity ratio is 208. Further, the CC50 at 120 h in data set [2] was determined as 94.7 µM. Besides, the 50% effective concentration (EC50) in data set [5] amounted to 0.46 µM.

Regarding `COc1ccc(CSc2nc(C(=O)c3cccc(F)c3)c(C(C)C)c(=O)[nH]2)cc1`, the “Ratio EC50” value in data set [6] stood at 50. For the same molecule, in data set [7], the IC50 was 0.04 µM. In addition, in data set [1], the selectivity ratio came to 472. For the same molecule, the CC50 at 120 h in data set [2] was determined as 132 µM. The values for the EC50 in data set [3], in data set [4] and in data set [5] were > 132 µM, > 132 µM and 0.29 µM, respectively.

As to `COc1ccc(CSc2nc(C(=O)c3ccc(F)c(F)c3)c(C)c(=O)[nH]2)cc1`, the selectivity ratio in data set [1] is ≤ 1. In addition, the CC50 at 120 h in data set [2] stood at 127 µM. The EC50 in data set [3] is > 127 µM; in data set [4] it was > 127 µM; in data set [5], ≥ 127 µM.

Take `CCc1c(C(=O)c2cccc(Br)c2)nc(SCc2ccc(OC)cc2)[nH]c1=O`: the selectivity ratio in data set [1] worked out at 84. Moreover, the CC50 at 120 h in data set [2] came to 98.9 µM. Also, the EC50 is > 98.9 µM in data set [3], > 98.9 µM in data set [4] and 1.18 µM in data set [5].

On to `Cc1cn([C@H]2C[C@H](N=[N+]=[N-])[C@@H](CO)O2)c(=O)[nH]c1=O` [ZIDOVUDINE], for which the selectivity ratio in data set [1] is 15800. In addition, the EC50 is 0.0064 µM in data set [3], 0.0066 µM in data set [4] and 0.0059 µM in data set [5].

`COc1ccc(CSc2nc(C(=O)c3ccccc3F)c(C(C)C)c(=O)[nH]2)cc1`: in data set [6], the “Ratio EC50” value came out at 50. Besides, the IC50 in data set [7] was 0.072 µM. In data set [1], the selectivity ratio was 145. The CC50 at 120 h in data set [2] amounted to 38.2 µM. For the same molecule, the EC50 is > 38.2 µM in data set [3], > 38.2 µM in data set [4] and 0.27 µM in data set [5].

For `O=c1[nH]cnc2c1ncn2[C@H]1CC[C@@H](CO)O1` [DIDANOSINE], in data set [1], the selectivity ratio was 12. For the same molecule, the 50% cytotoxic concentration (CC50) at 120 h in data set [2] was found to be 212 µM. For the same molecule, the EC50 in data set [3] amounted to 15.3 µM; in data set [5] it was 17.2 µM.

As for `COc1ccc(CSc2nc(C(=O)c3cccc(Br)c3)c(C)c(=O)[nH]2)cc1`, in data set [1], the selectivity ratio is 13. The 50% cytotoxic concentration (CC50) at 120 h in data set [2] was determined as 201 µM. Besides, the EC50 in data set [3] was > 201 µM; in data set [4], > 201 µM; in data set [5], 16 µM.

With `COc1ccc(CSc2nc(C(=O)c3ccccc3F)c(C)c(=O)[nH]2)cc1`, the IC50 in data set [7] was found to be 2.41 µM. The selectivity ratio in data set [1] stood at 124. Moreover, the CC50 at 120 h in data set [2] is 175 µM. The EC50 was > 175 µM in data set [3], > 175 µM in data set [4] and 1.4 µM in data set [5].

With `COc1ccc(CSc2nc(C(=O)c3cc(F)cc(F)c3)c(C)c(=O)[nH]2)cc1`, the selectivity ratio in data set [1] is 32. Besides, in data set [2], the CC50 at 120 h turned out to be 86.9 µM. Moreover, the EC50 was > 86.9 µM in data set [3], > 86.9 µM in data set [4] and 2.71 µM in data set [5].

With `CC(C)Nc1cccnc1N1CCN(C(=O)c2cc3cc(NS(C)(=O)=O)ccc3[nH]2)CC1` [DELAVIRDINE], in data set [1], the selectivity ratio is 379. Also, in data set [2], the CC50 at 120 h came out at 36.2 µM. For the same molecule, the EC50 is > 36.2 µM in data set [4] and 0.095 µM in data set [5].

On to `COc1ccc(CSc2nc(C(=O)c3ccc(Br)cc3)c(C(C)C)c(=O)[nH]2)cc1`, for which, in data set [1], the selectivity ratio was ≤ 1. Also, in data set [2], the half-maximal cytotoxic concentration (CC50) at 120 h stood at 42.5 µM. Also, the EC50 in data set [3] was > 42.5 µM; in data set [5], ≥ 42.5 µM.

Take `CCc1c(C(=O)c2cc(F)cc(F)c2)nc(SCc2ccc(OC)cc2)[nH]c1=O`: in data set [6], the “Ratio EC50” value is on record as 50. The IC50 in data set [7] amounted to 0.16 µM. Also, the selectivity ratio in data set [1] worked out at 541. Moreover, the CC50 at 120 h in data set [2] is 139 µM. The EC50 in data set [3] was > 139 µM; in data set [4], > 139 µM; in data set [5] it was 0.26 µM.

On to `O=C1Nc2ccc(Cl)cc2[C@@](C#CC2CC2)(C(F)(F)F)O1` [EFAVIRENZ], for which the CC50 at 120 h in data set [2] came to 6.34 µM. In addition, the EC50 came to 0.46 µM in data set [4] and 0.0067 µM in data set [5].

`COc1ccc(CSc2nc(C(=O)c3cccc(F)c3)c(C)c(=O)[nH]2)cc1`: the selectivity ratio in data set [1] was 35. For the same molecule, in data set [2], the CC50 at 120 h came to 225 µM. The EC50 in data set [3] was > 225 µM; in data set [4], > 225 µM; in data set [5], 6.35 µM.
